Laboratory results: ChEMBL document CHEMBL3886365, “Substituted oxadiazole compounds” (2015)

Key:
[1] = target: Sphingosine 1-phosphate receptor 1 (Homo sapiens, UniProt P21453); assay: (§1) GTPgammaS Binding Assay: Compounds were loaded in a 384 Falcon v-bottom plate (0.5 ul/well in a 11 point, 3-fold dilution). Membranes prepared from S1P1/CHO cells or EDG3-Ga15-bla HEK293T cells were added to the compound plate (40 ul/well, final protein 3 ug/well) with MULTIDROP. [35S]GTP (1250 Ci/mmol, Perkin Elmer) was diluted in assay buffer: 20 mM HEPES, pH7.5, 10 mM MgCl2, 150 mM NaCl, 1 mM EGTA, 1 mM DTT, 10 uM GDP, 0.1% fatty acid free BSA, and 10 ug/ml Saponin to 0.4 nM. 40 ul of the [35S] GTP solution was added to the compound plate with a final concentration of 0.2 nM. The reaction was kept at room temperature for 45 min. At the end of incubation, all the mixtures in the compound plate were transferred to Millipore 384-well FB filter plates via the VELOCITY11 Vprep liquid handler. The filter plate was washed with water 4 times by using the manifold Embla plate washer and dried at 60° C. for 45 min. MicroScint 20 scintillation fluid (30 ul) was added to each well.; type: functional, cell membranes
[2] = target: Sphingosine 1-phosphate receptor 3 (Homo sapiens, UniProt Q99500); assay: as §1; type: functional, cell membranes
Sphingosine 1-phosphate receptor 3, sequence (Q99500 whole entry): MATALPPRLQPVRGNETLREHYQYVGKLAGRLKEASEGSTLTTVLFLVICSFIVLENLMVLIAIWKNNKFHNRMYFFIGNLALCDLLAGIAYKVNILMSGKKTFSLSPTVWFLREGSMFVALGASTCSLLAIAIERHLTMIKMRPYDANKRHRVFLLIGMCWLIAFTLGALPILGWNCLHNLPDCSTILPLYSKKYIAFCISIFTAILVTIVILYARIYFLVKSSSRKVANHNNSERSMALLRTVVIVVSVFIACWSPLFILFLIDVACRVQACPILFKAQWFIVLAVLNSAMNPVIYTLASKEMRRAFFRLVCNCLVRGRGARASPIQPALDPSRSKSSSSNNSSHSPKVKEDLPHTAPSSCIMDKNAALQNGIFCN

Sphingosine 1-phosphate receptor 1, sequence (P21453 whole entry): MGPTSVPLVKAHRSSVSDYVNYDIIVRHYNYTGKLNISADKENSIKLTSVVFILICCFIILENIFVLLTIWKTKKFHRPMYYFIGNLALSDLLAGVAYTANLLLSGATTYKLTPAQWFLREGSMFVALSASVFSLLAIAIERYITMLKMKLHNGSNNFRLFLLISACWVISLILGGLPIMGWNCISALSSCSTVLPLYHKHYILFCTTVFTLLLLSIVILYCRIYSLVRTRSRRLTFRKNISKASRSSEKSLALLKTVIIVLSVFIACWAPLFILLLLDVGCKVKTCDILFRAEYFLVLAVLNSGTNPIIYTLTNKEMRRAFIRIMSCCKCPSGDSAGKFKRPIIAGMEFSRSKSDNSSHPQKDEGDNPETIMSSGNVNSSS

FC(F)(F)Oc1ccc(-c2noc(CCC3(c4ccccc4)CCCCC3)n2)cc1
EC50 [1]: 5.7 µM
EC50 [2]: > 62 µM
